Literature values, collected in patent US7060463B2 (priority 2001, dated 2006).

Biological target: GST-Flag-rhARLBD (Macaca mulatta, UniProt Q6QT55)
Sequence (Q6QT55 601-895): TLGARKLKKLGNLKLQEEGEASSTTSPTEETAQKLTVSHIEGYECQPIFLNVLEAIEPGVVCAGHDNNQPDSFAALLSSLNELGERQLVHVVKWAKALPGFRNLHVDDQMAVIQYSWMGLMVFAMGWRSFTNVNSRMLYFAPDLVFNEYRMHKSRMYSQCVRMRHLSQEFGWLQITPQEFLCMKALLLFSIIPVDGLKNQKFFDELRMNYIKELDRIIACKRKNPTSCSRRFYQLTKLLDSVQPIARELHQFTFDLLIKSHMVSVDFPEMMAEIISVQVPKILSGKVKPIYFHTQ

For `C[C@]1(O)CC[C@H]2[C@@H]3CCC4=CC(=O)CCC4=C3C=C[C@@]21C` [R1881, 17b-hydroxy-17-methylestra-4,9,11-trien-3-one], the IC50 is listed as ~1 nM.
